Assay results: article PMC10147923, “Pain-causing stinging nettle toxins target TMEM233 to modulate NaV1.7 function” (Nature Communications, 2023)
“And” between values parts separate entries of the source, which are not always exact repeats. Equal entries are not always repeated. Where two headings read alike, the source gives them in different places. Positions of bridges follow the written chain, without caps; N, C: chain ends. Residues, ends and D or L forms follow the SMILES beside them. *: point of attachment. Biotin = O=C1N[C@H]2[C@H](CS[C@H]2CCCCC(=O)*)N1; PEG4 = NCCOCCOCCOCCOCCC(=O)O

Tests used:
[1] = tested on: TE-671 cells; conditions: veratridine 5 µM, ouabain 20 nM
[2] = tested on: NaV1.7 endogenously expressed in TE-671 cells; assay: Persistent NaV current, TE-671 cells (automated patch clamp); type: cell-based
[3] = tested on: total and TTX-s NaV current in wild-type DRG neurons; assay: Persistent total NaV current, manual patch clamp, mouse DRG neurons; type: cell-based
[4] = target: T1, NaV1.7 (Homo sapiens, UniProt Q15858); type: cell-based
T1 sequence (Q15858 whole entry): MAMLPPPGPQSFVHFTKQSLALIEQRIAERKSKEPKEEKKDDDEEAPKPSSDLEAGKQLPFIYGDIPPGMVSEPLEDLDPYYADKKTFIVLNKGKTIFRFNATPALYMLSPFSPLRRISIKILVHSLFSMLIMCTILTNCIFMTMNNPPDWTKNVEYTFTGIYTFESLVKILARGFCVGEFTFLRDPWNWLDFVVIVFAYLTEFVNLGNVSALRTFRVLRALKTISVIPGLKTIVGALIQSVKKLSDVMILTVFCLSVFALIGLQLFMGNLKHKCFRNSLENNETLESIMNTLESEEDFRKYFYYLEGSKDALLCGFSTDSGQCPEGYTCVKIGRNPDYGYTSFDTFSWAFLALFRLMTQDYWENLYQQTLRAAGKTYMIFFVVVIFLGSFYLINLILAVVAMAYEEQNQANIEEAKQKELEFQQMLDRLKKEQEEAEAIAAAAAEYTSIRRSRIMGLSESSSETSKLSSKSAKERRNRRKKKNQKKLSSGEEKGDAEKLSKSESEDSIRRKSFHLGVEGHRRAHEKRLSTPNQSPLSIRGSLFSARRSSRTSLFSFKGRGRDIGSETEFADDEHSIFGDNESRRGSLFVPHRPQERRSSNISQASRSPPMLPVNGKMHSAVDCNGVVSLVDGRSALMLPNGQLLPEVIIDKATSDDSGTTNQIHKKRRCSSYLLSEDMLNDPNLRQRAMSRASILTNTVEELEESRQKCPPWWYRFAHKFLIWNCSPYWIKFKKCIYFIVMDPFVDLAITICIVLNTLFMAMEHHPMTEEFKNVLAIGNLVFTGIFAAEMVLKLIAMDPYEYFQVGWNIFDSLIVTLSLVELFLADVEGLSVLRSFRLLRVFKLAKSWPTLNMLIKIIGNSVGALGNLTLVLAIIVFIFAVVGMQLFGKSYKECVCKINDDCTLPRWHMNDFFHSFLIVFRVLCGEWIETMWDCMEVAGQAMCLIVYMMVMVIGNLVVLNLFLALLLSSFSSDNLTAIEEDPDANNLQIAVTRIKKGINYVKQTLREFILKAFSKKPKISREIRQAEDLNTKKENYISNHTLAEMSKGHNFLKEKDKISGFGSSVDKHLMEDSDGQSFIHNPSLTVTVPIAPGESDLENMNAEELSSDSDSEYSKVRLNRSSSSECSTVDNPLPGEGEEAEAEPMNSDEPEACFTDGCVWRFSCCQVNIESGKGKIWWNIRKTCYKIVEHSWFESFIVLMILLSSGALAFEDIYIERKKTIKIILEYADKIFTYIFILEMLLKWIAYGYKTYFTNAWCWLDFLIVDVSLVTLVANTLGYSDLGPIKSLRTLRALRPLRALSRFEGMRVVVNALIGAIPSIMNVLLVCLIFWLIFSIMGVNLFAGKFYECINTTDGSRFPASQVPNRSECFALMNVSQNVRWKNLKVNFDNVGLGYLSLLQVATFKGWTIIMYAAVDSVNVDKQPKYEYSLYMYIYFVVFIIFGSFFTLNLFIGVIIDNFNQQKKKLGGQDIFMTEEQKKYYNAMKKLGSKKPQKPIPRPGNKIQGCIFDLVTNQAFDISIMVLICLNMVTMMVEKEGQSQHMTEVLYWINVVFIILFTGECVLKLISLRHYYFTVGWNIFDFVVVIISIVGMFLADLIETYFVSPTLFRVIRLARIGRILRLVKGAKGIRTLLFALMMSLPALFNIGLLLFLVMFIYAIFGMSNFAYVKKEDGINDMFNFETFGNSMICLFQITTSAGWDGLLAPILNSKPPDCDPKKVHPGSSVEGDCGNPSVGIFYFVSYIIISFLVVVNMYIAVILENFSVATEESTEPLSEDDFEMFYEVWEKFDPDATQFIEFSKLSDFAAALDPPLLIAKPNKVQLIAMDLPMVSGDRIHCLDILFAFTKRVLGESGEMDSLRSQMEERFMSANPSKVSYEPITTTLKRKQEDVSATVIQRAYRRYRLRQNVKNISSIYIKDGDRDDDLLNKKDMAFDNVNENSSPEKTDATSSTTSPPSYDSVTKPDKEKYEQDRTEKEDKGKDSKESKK
T1 sequence (Q07699 19-218, further chain): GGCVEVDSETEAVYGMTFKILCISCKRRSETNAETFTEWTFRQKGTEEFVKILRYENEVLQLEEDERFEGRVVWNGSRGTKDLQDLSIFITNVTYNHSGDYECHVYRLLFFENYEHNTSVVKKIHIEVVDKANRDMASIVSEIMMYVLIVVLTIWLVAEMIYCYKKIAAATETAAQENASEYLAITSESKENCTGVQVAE

[5] = target: T1, NaV1.7; assay: Recovery from fast inactivation, HEK293-NaV1.7 with peptide in intracellular solution; type: cell-based
Description: To determine recovery from fast inactivation, a 20 ms pulse to 0 mV from a holding potential of −90 mV was used to induce fast inactivation. A subsequent recovery period, ranging from 1 ms to 2216 ms in 50% increments at −90 mV, was followed by a last 20 ms test pulses to 0 mV to determine the time-dependence of recovery from fast inactivation. The proportion of available channels was determined by normalizing peak currents from the last to the first pulse. A two-phase exponential equation was fit to the normalized current, plotted as a function of time, to determine the time constants τ1 and τ2 of recovery from fast inactivation.

[6] = target: T2, NaV1.7/TMEM233 (Homo sapiens, UniProt B4DJY2+Q15858); type: cell-based
[7] = target: T2, NaV1.7/TMEM233; type: cell-based; conditions: best-fit value, log(agonist) vs. response -- variable slope (four parameters)
Description: HEK293-NaV1.7 cells were transfected with TMEM233, CRELD1, LMAN2L, MMGT1, RNF121 and STT3B and co-transfected with five plasmids coding for the Glycosylphosphatidylinositol (GPI) complex (GPAA1, PIGK, PIGS, PIGU, PIGT) using Lipofectamine 2000. After 24 h, transfected cells were harvested and plated at a density of 10,000–15,000 cells per well on black-walled 384-well imaging plates. Plated cells were cultured for a further 24 h at 37 °C and 5% CO2. FLIPR (Fluorescent Imaging Plate Reader) Red membrane potential assay dye (Molecular Devices, California, USA) was diluted in physiological salt solution according to the manufacturer’s instructions (PSS, in mM: NaCl 140, glucose 11.5, HEPES 10, KCl 5.9, MgCl2 1.4, NaH2PO4 1.2, NaHCO3 5, CaCl2 1.8, pH 7.4). Growth medium was removed from the plate and replaced with 20 µL of FLIPR Red membrane potential assay dye per well and incubated in the dark at 37 °C for 60 min. […] Fluorescence responses to ExTxA were computed as the maximum change in fluorescence over baseline (ΔF/F0) using ScreenWorks (Molecular Devices, Version 5.1.2.94).

[8] = target: T1, NaV1.7; assay: ExTxA-488 binding assay, NaV1.7
Description: (§1) HEK293 cells (untransfected controls, or transfected with TMEM233, NaV1.7 or both TMEM233 and NaV1.7), were incubated in suspension with ExTxA conjugated to Alexa Fluor 488 (ExTxA-488) in assay buffer (250 mM NaCl, 25 mM HEPES, pH 7) for 30 min at 4 °C. Unbound ExTxA-488 was removed by washing cells three times with assay buffer. Cells were plated at a density of 100,000 cells per well in a volume of 50 µL in a 384-well OptiPlate (PerkinElmer, Massachusetts, USA). Fluorescence intensity (excitation 490 nm; emission 520 nm) was assessed using an Infinite M1000 Pro (Tecan, Männedorf, Switzerland). Concentration-response curves were fitted using the log (agonist) vs. response—variable slope (four parameters) equation and normalized to the largest fitted top from amongst the four groups as computed by GraphPad Prism Version 9.4.1.

[9] = tested on: HEK293 cells; assay: ExTxA-488 binding assay, untransfected/mock HEK293; design: species or system human
Description: as §1

[10] = target: T2, NaV1.7/TMEM233; assay: ExTxA-488 binding assay, NaV1.7/TMEM233
Description: as §1

[11] = target: TMEM233 (Homo sapiens, UniProt B4DJY2); assay: ExTxA-488 binding assay, TMEM233
Sequence of TMEM233 (B4DJY2 whole entry): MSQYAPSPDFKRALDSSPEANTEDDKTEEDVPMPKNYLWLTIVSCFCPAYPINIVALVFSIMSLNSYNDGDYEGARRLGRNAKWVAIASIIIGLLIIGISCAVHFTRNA
Description: as §1

[12] = target: T2, NaV1.7/TMEM233; assay: Proximity ligation assay NaV1.7 and TMEM233; conditions: Fig 5e
Description: HEK293 cells stably expressing β1/β2 were transiently transfected in T25 flasks using Lipofectamine 2000 with plasmids encoding GFP (0.35 μg) as a transfection control, as well as N-terminal HA-tagged TMEM233 (0.35 μg) and N-terminal FLAG- tagged NaV1.7 (1.0 μg) alone or in combination. The total amount of plasmid DNA/T25 flask was kept constant at 1.7 μg flask using empty pcDNA3.1 plasmid as required. After 24 h incubation at 37 °C, cells were plated on PDL-coated glass coverslips and cultured for a further 24 h. Cells were washed once using sterile phosphate-buffered saline, fixed with 4% formaldehyde for 5 min, permeabilized with 0.1% Triton-X 100 in PSS, blocked using proximity ligation bocking buffer (Sigma DUO82007) and incubated for 1 h with anti-FLAG (1:1000; Sigma F1804) and anti-HA (1:1000; Sigma H6908) antibodies in Duolink antibody diluent. Permeabilized cells were then washed twice with wash buffer A at room temperature for 5 min. Anti-mouse PLUS (Sigma DUO92001) and anti-rabbit MINUS (Sigma DUO92005) probes were diluted 1:5 in Duolink antibody diluent and incubated with cells for 1 h at 37 °C. Cells were then washed with wash buffer A at room temperature for 5 min twice and incubated with ligase diluted 1:40 in ligation buffer. After incubation at 37 °C for 30 mins, cells were washed twice with wash buffer A. Polymerase was diluted 1:80 in amplification buffer and incubated with cells for 100 mins at 37 °C. Cells were subsequently washed with wash buffer B twice for 10 mins and mounted with Duolink In Situ mounting media with DAPI. Cells were imaged on a Zeiss AxioImage M2 with Apotome2 and Axiocam 506 camera. Proximity ligation assay signal (PLA particles) in GFP-positive cells were quantified using ImageJ in collapsed stacks from 3–6 random images obtained per coverslip (Image>Type>8-bit; Image>Adjust>Threshold; Image>Analyze>Analyze Particles). Particles size was set to 0.0003–∞ and circularity to 0.00–1.00. The average number of particles/GFP-positive cells from three independent experiments was analyzed by One-way ANOVA.

## COc1ccc(C(=O)O[C@H]2CC[C@@]3(C)[C@@H]4CC[C@H]5[C@]6(O)C[C@H](O)[C@@]7(O)[C@@H](CN8C[C@@H](C)CC[C@H]8[C@@]7(C)O)[C@]6(O)C[C@@]53O[C@]24O)cc1OC [veratridine, reference compound]
[1]
  cytotoxicity of the concentration used: non-cytotoxic

## NC1=N[C@H](O)[C@H]2[C@H]3O[C@]4(O)O[C@@H]([C@@H](O)[C@@]2(N1)[C@@H]4O)[C@]3(O)CO [TTX, tetrodotoxin, reference compound]
[2]
  Mean Diff. of persistent current, ExTxA vs. ExTxA + TTX: 0.2464
[3]
  Mean Diff. of persistent current, ExTxA vs. ExTxA + TTX: 0.5123
[4]
  Mean Diff. of persistent current, ExTxA vs. TTX: 0.1483

## 1-41 TMEM233 (MSQYAPSPDFKRALDSSPEANTEDDKTEEDVPMPKNYLWLT; UniProt B4DJY2 1-41, looked up, fragment)
[5]
  Tau Fast, difference between means (1-41 TMEM233 - BSA control) ± SEM: 3.270 ± 1.361
  Tau Fast, individual values: 5.876 and 7.835 and 7.406 and 14.82 and 9.055 and 12.01 and 6.932 and 17.51 and 10.21
  Tau Fast, mean: 10.18

## CC[C@H](C)[C@@H]1NC(=O)[C@H](CCCNC(=N)N)NC(=O)[C@H](Cc2ccccc2)NC(=O)[C@H](CC(C)C)NC(=O)[C@H](CO)NC(=O)[C@@H]2CSSC[C@@H]3NC(=O)[C@H]([C@@H](C)O)NC(=O)[C@H](CSSC[C@H](NC(=O)[C@H](CCCNC(=N)N)NC(=O)[C@@H]4CCCN4C(=O)[C@H](CC(C)C)NC(=O)[C@@H](N)CCCCn4cc(CNC(=O)c5ccc(-c6c7ccc(=N)c(S(=O)(=O)O)c-7oc7c(S(=O)(=O)O)c(N)ccc67)c(C(=O)O)c5)nn4)C(=O)N[C@@H](CC(=O)O)C(=O)N[C@@H](CO)C(=O)N4CCC[C@H]4C(=O)N[C@@H](Cc4ccccc4)C(=O)N2)NC(=O)[C@H](CCCCN)NC(=O)[C@H](CC(=O)O)NC(=O)CNC(=O)[C@H](CSSC[C@@H](C(=O)N[C@H](C(=O)N2CCC[C@H]2C(=O)N[C@@H](CC(=O)O)C(=O)N[C@H](C(=O)O)C(C)C)C(C)C)NC(=O)[C@H](CC(C)C)NC(=O)CNC(=O)[C@H](Cc2ccccc2)NC(=O)[C@H]([C@@H](C)CC)NC(=O)[C@@H]2CCCN2C(=O)[C@H](CC(C)C)NC(=O)[C@@H]2CCCN2C(=O)[C@H](C(C)C)NC3=O)NC(=O)[C@H](CC(C)C)NC(=O)CNC1=O [Alexa488-ExTxA]
[6]
  Best-fit parameter Bottom: 0.00002
  Best-fit parameter Hill slope: 1.084
  Best-fit parameter Top: 0.8013
  functional activity of tagged ExTxA: retained functional activity
[7]
  Bottom: 2.016e-5
  HillSlope: 1.084
  LogEC50: -7.29
  Span: 0.8012
  Top: 0.8013
[8]; Alexa488-ExTxA 1 µM, NaV1.7, mean ± SEM, n = 3
  Max fluorescence: 20,583 ± 3970 AFU
[8]; Nav1.7, four-parameter fit, Top = 1
  HillSlope: 0.7934
[8]; Nav1.7, four-parameter fit, Top = 1, 95% CI -5.409 to -4.797
  LogEC50: -5.142
[9]; Alexa488-ExTxA 1 µM, HEK293, mean ± SEM, n = 3
  Max fluorescence: 15,740 ± 2133 AFU
[9]; Untransfected, four-parameter fit, Top = 1
  HillSlope: 0.9756
[9]; Untransfected, four-parameter fit, Top = 1, 95% CI -5.502 to -5.307
  LogEC50: -5.409
[10]
  HillSlope: 1.366
  LogEC50: -6.833
[10]; Alexa488-ExTxA 1 µM, NaV1.7/TMEM233, mean ± SEM, n = 3
  Max fluorescence: 38,799 ± 2471 AFU
[11]
  HillSlope: 1.703
  LogEC50: -6.917
[11]; Alexa488-ExTxA 1 µM, TMEM233, mean ± SEM, n = 3
  Max fluorescence: 38,681 ± 951.2 AFU

## C[C@@H]1O[C@@H](O[C@H]2C[C@@H](O)[C@]3(CO)[C@H]4[C@H](O)C[C@]5(C)[C@@H](C6=CC(=O)OC6)CC[C@]5(O)[C@@H]4CC[C@]3(O)C2)[C@H](O)[C@H](O)[C@H]1O [ouabain, reference compound]
[1]
  cytotoxicity of the concentration used: non-cytotoxic

## FLAG-NaV1.7
[12]; mean of n = 3
  particles/cell, mean: 5.245 particles/cell
[12]; replicate 1
  particles/cell: 1.95 particles/cell
[12]; replicate 2
  particles/cell: 7.467 particles/cell
[12]; replicate 3
  particles/cell: 6.319 particles/cell

## BSA control
[5]
  Tau Fast, individual values: 7.097 and 5.916 and 7.352 and 7.278 and 4.563 and 7.588 and 6.382 and 7.242 and 8.803
  Tau Fast, mean: 6.913

## CC[C@H](C)[C@@H]1NC(=O)[C@H](CCCNC(=N)N)NC(=O)[C@H](Cc2ccccc2)NC(=O)[C@H](CC(C)C)NC(=O)[C@H](CO)NC(=O)[C@@H]2CSSC[C@@H]3NC(=O)[C@H]([C@@H](C)O)NC(=O)[C@H](CSSC[C@H](NC(=O)[C@H](CCCNC(=N)N)NC(=O)[C@@H]4CCCN4C(=O)[C@H](CC(C)C)NC(=O)CCOCCOCCOCCOCCNC(=O)CCCC[C@@H]4SC[C@@H]5NC(=O)N[C@@H]54)C(=O)N[C@@H](CC(=O)O)C(=O)N[C@@H](CO)C(=O)N4CCC[C@H]4C(=O)N[C@@H](Cc4ccccc4)C(=O)N2)NC(=O)[C@H](CCCCN)NC(=O)[C@H](CC(=O)O)NC(=O)CNC(=O)[C@H](CSSC[C@@H](C(=O)N[C@H](C(=O)N2CCC[C@H]2C(=O)N[C@@H](CC(=O)O)C(=O)N[C@H](C(=O)O)C(C)C)C(C)C)NC(=O)[C@H](CC(C)C)NC(=O)CNC(=O)[C@H](Cc2ccccc2)NC(=O)[C@H]([C@@H](C)CC)NC(=O)[C@@H]2CCCN2C(=O)[C@H](CC(C)C)NC(=O)[C@@H]2CCCN2C(=O)[C@H](C(C)C)NC3=O)NC(=O)[C@H](CC(C)C)NC(=O)CNC1=O [ExTxA-Biotin] ({Biotin-PEG4}-LPRCDSPFCSLFRIGLCGDKCTCVPLPIFGLCVPDV-OH; disulfide 4-21, 9-23, 17-32)
[7]
  Bottom: -0.001461
  HillSlope: 0.9303
  LogEC50: -6.256
  Span: 0.7803
  Top: 0.7788
